The results in this text go back to PMC2818674 (Bioorganic & medicinal chemistry, 2009).

Data set [1] deals with Akt. Kind of data set: Selectivity profile: Akt. The class given is biochemical. Conditions: for IC50: read-out: Akt, IC50, selectivity profile.
A short description of data set [2]: Plasma stability assay. The class given is in vitro ADME, rat. Conditions: for plasma stability: after 1 h of incubation in rat plasma; for remaining at 1 h, 1 μM: rat, fresh rat plasma.
Data set [3] can be described thus: PAMPA permeability assay. The class given is in vitro ADME. Conditions: pH 7.4. (The PAMPA barrier holds no transporters, so it reflects passive diffusion.)

The IC50 is the midpoint of a concentration-inhibition curve. The fraction remaining is what is left of the initial amount, in per cent. As to `CCCNc1nnc(Sc2ncc([N+](=O)[O-])s2)s1` [BI-90H6, 5-(5-nitrothiazol-2-ylthio)-N-propyl-1,3,4-thiadiazol-2-amine], the IC50 in data set [1] was more than 100 µM. In data set [2], the “plasma stability” value is given as “degraded rapidly” and the share remaining at 1 h, 1 μM came out at 35%. Moreover, the “Cell permeability, PAMPA % Flux” value in data set [3] was 49.8%.

In the case of `O=[N+]([O-])c1cnc(Sc2nnc(O)n2-c2ccc3c(c2)OCCO3)s1` [BI-78D3, reference compound], in data set [2], the amount remaining at 1 h, 1 μM turned out to be 42%. Further, the “Cell permeability, PAMPA % Flux” value in data set [3] is given as 30%.

Regarding `COCCNc1nnc(Sc2ncc([N+](=O)[O-])s2)s1` [BI-90H9, N-(2-methoxyethyl)-5-(5-nitrothiazol-2-ylthio)-1,3,4-thiadiazol-2-amine], in data set [1], the “activity against the kinase Akt” value is “practically inactive” and the IC50 is more than 100 µM. Moreover, the share remaining at 1 h, 1 μM in data set [2] was 68%. The “Cell permeability, PAMPA % Flux” value in data set [3] worked out at 76.3%.

`CCC(C)Nc1nnc(Sc2ncc([N+](=O)[O-])s2)s1` (stereo not drawn) [BI-98A10, N-sec-butyl-5-(5-nitrothiazol-2-ylthio)-1,3,4-thiadiazol-2-amine]: the IC50 in data set [1] is more than 100 µM.

For `COc1ccc(CCNc2nnc(Sc3ncc([N+](=O)[O-])s3)s2)cc1OC` [BI-90H10, N-(3,4-dimethoxyphenethyl)-5-(5-nitrothiazol-2-ylthio)-1,3,4-thiadiazol-2-amine], the 50% inhibitory concentration (IC50) in data set [1] is more than 100 µM. Further, in data set [2], the “plasma stability” value was “degraded rapidly” and the amount remaining at 1 h, 1 μM stood at 0%. Besides, in data set [3], the “Cell permeability, PAMPA % Flux” value was determined as 5.5%.
